This passage reports IC50 results from patent US10584116B2, “Heterocyclic sulfonamide derivative and medicine containing same” (EA Pharma Co., Ltd., priority 2016, dated 2020).

What is called IC50 is the concentration needed to halve the response being measured.

In this experiment the target is human TRPA1 (Homo sapiens (Human), UniProt O75762). Description: Measurement of TRPA1 antagonist activity (intracellular calcium increase induced by allylisothiocyanate in 293T cells transfected with human TRPA1). Format: cell-based. As to conditions: 293T cells expressing human TRPA1, allylisothiocyanate stimulation, FLIPR Calcium4 fluorescence; read-out: hTRPA1 IC50. As to the method: Measurement of TRPA1 Antagonist Activity
Sequence of human TRPA1 (O75762 whole entry): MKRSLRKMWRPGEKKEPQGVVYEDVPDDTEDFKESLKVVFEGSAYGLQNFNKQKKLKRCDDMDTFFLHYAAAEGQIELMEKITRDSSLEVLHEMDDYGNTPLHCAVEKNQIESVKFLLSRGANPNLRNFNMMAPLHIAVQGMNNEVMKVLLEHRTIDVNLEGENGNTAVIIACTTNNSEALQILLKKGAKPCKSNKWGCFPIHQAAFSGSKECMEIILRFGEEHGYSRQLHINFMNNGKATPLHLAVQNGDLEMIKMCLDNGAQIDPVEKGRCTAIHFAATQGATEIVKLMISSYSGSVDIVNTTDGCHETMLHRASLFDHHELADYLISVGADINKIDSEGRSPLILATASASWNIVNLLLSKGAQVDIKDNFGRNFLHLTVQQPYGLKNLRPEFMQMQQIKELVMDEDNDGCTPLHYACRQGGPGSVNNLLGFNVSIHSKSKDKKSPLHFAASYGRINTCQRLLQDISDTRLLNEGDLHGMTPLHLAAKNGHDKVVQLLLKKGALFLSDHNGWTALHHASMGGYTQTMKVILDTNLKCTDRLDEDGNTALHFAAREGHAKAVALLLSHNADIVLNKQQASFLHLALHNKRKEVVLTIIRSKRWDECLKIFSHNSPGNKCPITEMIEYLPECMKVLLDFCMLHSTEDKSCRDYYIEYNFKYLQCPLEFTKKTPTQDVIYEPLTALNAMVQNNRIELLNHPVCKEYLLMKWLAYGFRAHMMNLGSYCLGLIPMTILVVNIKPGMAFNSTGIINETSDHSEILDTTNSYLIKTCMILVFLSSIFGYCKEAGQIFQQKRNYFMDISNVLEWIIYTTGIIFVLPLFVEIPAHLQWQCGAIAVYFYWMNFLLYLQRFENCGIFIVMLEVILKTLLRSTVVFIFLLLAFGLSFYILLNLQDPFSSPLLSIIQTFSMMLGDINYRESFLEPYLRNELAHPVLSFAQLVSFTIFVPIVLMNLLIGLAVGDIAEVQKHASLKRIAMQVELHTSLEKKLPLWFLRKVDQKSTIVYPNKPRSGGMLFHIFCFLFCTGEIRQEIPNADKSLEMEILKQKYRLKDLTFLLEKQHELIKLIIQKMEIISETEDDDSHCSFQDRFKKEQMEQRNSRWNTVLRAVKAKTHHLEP
Human TRPA1 Expression Plasmid
Using cDNA encoding human TRPA1 (GenBank accession No. NM_007332) (manufactured by Kazusa DNA Research Institute, item No. FHC07217) as a template, primer 1 (SEQ ID NO: 1) and primer 2 (SEQ ID NO: 2), PCR by PfuUltra High-Fidelity DNA Polymerase (Stratagene) was performed, and full-length human TRPA1 gene was amplified.
A recognition site (underlined) of restriction enzyme HindIII was added to the 5′ end of human TRPA1 gene, and XbaI site (underlined) was added to the 3′ end of human TRPA1 gene, and GTT of the template sequence was changed to termination codon TAG (bold). The obtained double stranded DNA was enzyme-digested with HindIII and XbaI, and introduced into a multicloning site of expression plasmid pcDNA3.1/zeo(+) (manufactured by Invitrogen) to give a human TRPA1 expression plasmid.
Human embryonic kidney-derived 293T cells were cultured in Dulbecco's Modified Eagle Medium containing 10% fetal bovine serum, 10 unit penicillin, and 10 μg streptomycin. One day before assay, 3×10^6 of 293T cells were plated on a petri dish having a diameter of 10 cm, and cultured in a CO2 incubator for 24 hr. OPTI-MEM I Reduced Serum Media (Invitrogen) (600 μL), Mirus TransIT-293 (Mirus Bio) (18 μL), and human TRPA1 expression plasmid (6 μg) were mixed, the total amount of the mixture was added to the cells on the petri dish to allow for gene transfer. The cells were recovered about for 8 hr later, plated on a poly-D-lysine coated 384 well black/clear bottom plate at 12,000 cells/well, and cultured overnight.
Measurement of Intracellular Calcium Increase
The medium was removed from the 384 well plate, calcium indicator (Molecular Device, trade name: FLIPR Calcium4 Assay Kit) dissolved in HBSS (Thermo Fisher Scientific) (pH 7.2) containing 20 mM HEPES was added (38 μL/well), and the cells were stained in a CO2 incubator for 1 hr. The 384 well plate was stood at room temperature for not less than 15 min, set on FDSS7000 (Hamamatsu Photonics K.K.), and a test substance solution was added at 10 μL/well. After 10 min, allylisothiocyanate solution (12 μL/well) was added, the relative fluorescence intensity was measured for 5 min after addition of the allylisothiocyanate solution.
Test Substance Preparation
Preparation of Test Substance Solution and Allylisothiocyanate Solution
A test substance solution was prepared to have a composition of HBSS (Thermo Fisher Scientific) (pH 7.2) containing 0.48% dimethyl sulfoxide, a test substance at 4.8-fold concentration of the evaluation concentration, 0.1% bovine serum albumin and 20 mM HEPES. An allylisothiocyanate solution was prepared to have a composition of HBSS (Thermo Fisher Scientific) (pH 7.2) containing 0.1% dimethyl sulfoxide, 100 μM allylisothiocyanate, 0.1% bovine serum albumin and 20 mM HEPES.
Calculation of Antagonist Activity
The activity rate of a test substance at each concentration was calculated, wherein the relative fluorescence intensity change of a well free of a test substance and containing allylisothiocyanate is 100% activity rate, and the relative fluorescence intensity change of a well free of a test substance and allylisothiocyanate is 0% activity rate. The inhibitory rate of a test substance at each concentration was calculated by subtracting the activity rate of the test substance from 100% activity rate, and the concentration of a test substance showing 50% inhibitory rate was calculated as IC50 from the sigmoid approximate curve by XLfit (idbs).
(Calcium flux is commonly read through the fluorescence of an indicator in the cells.)
Regarding `CC(C)n1c(=O)c(CNC(=O)[C@H](C)NS(=O)(=O)c2cc3cc(F)ccc3o2)cn(-c2ccc(C(F)(F)F)cc2)c1=O` [Example 24], the IC50 is 42 nM.
The same measure for `Cc1ccc2oc(S(=O)(=O)N3CCC[C@H]3C(=O)NCc3cn(-c4ccc(C(F)(F)F)cc4)c(=O)n(C(C)C)c3=O)cc2c1` [Example 25, (2S)-N-[[3-isopropyl-2,4-dioxo-1-[4-(trifluoromethyl)phenyl]pyrimidin-5-yl]methyl]-1-(5-methylbenzofuran-2-yl)sulfonyl-pyrrolidine-2-carboxamide]: 420 nM; for `CC(C)n1c(=O)c(CNC(=O)C2(NS(=O)(=O)c3cc4cc(F)ccc4o3)CC2)cn(-c2ccc(C(F)(F)F)cc2)c1=O` [Example 26]: 250 nM; for `CC(C)n1cc(-c2ccc(C(F)(F)F)cc2)cc(CNC(=O)[C@@H]2CCCN2S(=O)(=O)c2cc3cnccc3o2)c1=O` [Example 27, (2S)-1-fro[3,2-c]pyridin-2-ylsulfonyl-N-[[1-isopropyl-2-oxo-5-[4-(trifluoromethyl)phenyl]-3-pyridyl]methyl]pyrrolidine-2-carboxamide]: 93 nM.
Turning to `CC(C)n1cc(-c2ccc(C(F)(F)F)nc2)cc(CNC(=O)[C@@H]2CCCN2S(=O)(=O)c2cc3ccccc3o2)c1=O` [Example 28, (2S)-1-(benzofuran-2-ylsulfonyl)-N-[[1-isopropyl-2-oxo-5-[6-(trifluoromethyl)-3-pyridyl]-3-pyridyl]methyl]pyrrolidine-2-carboxamide], the IC50 amounted to 180 nM.
The same measure for `CC(C)n1c(=O)c(CNC(=O)[C@@H]2CCCN2S(=O)(=O)c2cc3ccccc3o2)cn(-c2ccc(C(F)(F)F)nc2)c1=O` [Example 29, (2S)-1-(benzofuran-2-ylsulfonyl)-N-[[3-isopropyl-2,4-dioxo-1-[6-(trifluoromethyl)-3-pyridyl]pyrimidin-5-yl]methyl]pyrrolidine-2-carboxamide]: 30 nM; for `CC(C)n1c(=O)c(CNC(=O)[C@@H]2CCCN2S(=O)(=O)c2cc3cc(F)ccc3o2)cn(-c2ccc(C(F)(F)F)nc2)c1=O` [Example 30, (2S)-1-(5-fluorobenzofuran-2-yl)sulfonyl-N-[[3-isopropyl-2,4-dioxo-1-[6-(trifluoromethyl)-3-pyridyl]pyrimidin-5-yl]methyl]pyrrolidine-2-carboxamide]: 10 nM; for `CC(C)n1c(=O)c(CNC(=O)[C@@H]2[C@@H](O)CCN2S(=O)(=O)c2cc3cc(F)ccc3o2)cn(-c2ccc(C(F)(F)F)nc2)c1=O` [Example 31, (2S,3S)-1-(5-fluorobenzofuran-2-yl)sulfonyl-3-hydroxy-N-[[3-isopropyl-2,4-dioxo-1-[6-(trifluoromethyl)-3-pyridyl]pyrimidin-5-yl]methyl]pyrrolidine-2-carboxamide]: 380 nM.
As for `CC(C)n1c(=O)c(CNC(=O)[C@@H]2CCCN2S(=O)(=O)c2cc3cnccc3o2)cn(-c2ccc(C(F)(F)F)nc2)c1=O` [Example 32, (2S)-1-fro[3,2-c]pyridin-2-ylsulfonyl-N-[[3-isopropyl-2,4-dioxo-1-[6-(trifluoromethyl)-3-pyridyl]pyrimidin-5-yl]methyl]pyrrolidine-2-carboxamide], the IC50 is 570 nM.
Regarding `CC(C)n1c(=O)c(CNC(=O)[C@@H]2CCCN2S(=O)(=O)c2cc3ccccc3o2)cn(-c2ccc(C(F)(F)F)cn2)c1=O` [Example 33, (2S)-1-(benzofuran-2-ylsulfonyl)-N-[[3-isopropyl-2,4-dioxo-1-[5-(trifluoromethyl)-2-pyridyl]pyrimidin-5-yl]methyl]pyrrolidine-2-carboxamide], the IC50 was 44 nM.
Turning to `CC(C)n1c(=O)c(CNC(=O)[C@@H]2CCCN2S(=O)(=O)c2cc3cc(F)ccc3o2)cn(-c2ccc(C(F)(F)F)cn2)c1=O` [Example 34, (2S)-1-(5-fluorobenzofuran-2-yl)sulfonyl-N-[[3-isopropyl-2,4-dioxo-1-[5-(trifluoromethyl)-2-pyridyl]pyrimidin-5-yl]methyl]pyrrolidine-2-carboxamide], the IC50 amounted to 18 nM.
On to `CC(C)n1c(=O)c(CNC(=O)[C@@H]2[C@@H](O)CCN2S(=O)(=O)c2cc3cc(F)ccc3o2)cn(-c2ccc(C(F)(F)F)cn2)c1=O` [Example 35, (2S,3S)-1-(5-fluorobenzofuran-2-yl)sulfonyl-3-hydroxy-N-[[3-isopropyl-2,4-dioxo-1-[5-(trifluoromethyl)-2-pyridyl]pyrimidin-5-yl]methyl]pyrrolidine-2-carboxamide], for which the IC50 is 160 nM.
With `CC(C)n1c(=O)c(CNC(=O)[C@@H]2CCCN2S(=O)(=O)c2cc3cnccc3o2)cn(-c2ccc(C(F)(F)F)cn2)c1=O` [Example 36, (2S)-1-fro[3,2-c]pyridin-2-ylsulfonyl-N-[[3-isopropyl-2,4-dioxo-1-[5-(trifluoromethyl)-2-pyridyl]pyrimidin-5-yl]methyl]pyrrolidine-2-carboxamide], the IC50 turned out to be 200 nM.
`CC(C)n1cc(-c2ccc(C(F)(F)F)nc2)cc(CNC(=O)[C@@H]2CCCN2S(=O)(=O)c2cc3cc(F)ccc3o2)c1=O` [Example 37, (2S)-1-(5-fluorobenzofuran-2-yl)sulfonyl-N-[[1-isopropyl-2-oxo-5-[6-(trifluoromethyl)-3-pyridyl]-3-pyridyl]methyl]pyrrolidine-2-carboxamide]: the IC50 is 31 nM.
Consider `CC(C)n1c(=O)c(CNC(=O)[C@@H]2CCCN2S(=O)(=O)c2cc3ccccc3o2)cn(-c2ccc(F)cc2)c1=O` [Example 38, (2S)-1-(benzofuran-2-ylsulfonyl)-N-[[1-(4-fluorophenyl)-3-isopropyl-2,4-dioxo-pyrimidin-5-yl]methyl]pyrrolidine-2-carboxamide], for which the IC50 is 240 nM.
For `CC(C)n1c(=O)c(CNC(=O)[C@@H]2CCCN2S(=O)(=O)c2cc3cc(F)ccc3o2)cn(-c2ccc(F)cc2)c1=O` [Example 39], the IC50 is 100 nM.
As for `CC(C)n1c(=O)c(CNC(=O)[C@@H]2CCCN2S(=O)(=O)c2cc3ccccc3o2)cn(-c2ccc(Cl)cc2)c1=O` [Example 40, (2S)-1-(benzofuran-2-ylsulfonyl)-N-[[1-(4-chlorophenyl)-3-isopropyl-2,4-dioxo-pyrimidin-5-yl]methyl]pyrrolidine-2-carboxamide], the IC50 was found to be 85 nM.
Regarding `CC(C)n1c(=O)c(CNC(=O)[C@@H]2CCCN2S(=O)(=O)c2cc3cc(F)ccc3o2)cn(-c2ccc(Cl)cc2)c1=O` [Example 41, (2S)-N-[[1-(4-chlorophenyl)-3-isopropyl-2,4-dioxo-pyrimidin-5-yl]methyl]-1-(5-fluorobenzofuran-2-yl)sulfonyl-pyrrolidine-2-carboxamide], the IC50 turned out to be 24 nM.
Turning to `CC(C)n1cc(-c2ccc(C(F)(F)F)cn2)cc(CNC(=O)[C@@H]2CCCN2S(=O)(=O)c2cc3ccccc3o2)c1=O` [Example 42, (2S)-1-(benzofuran-2-ylsulfonyl)-N-[[1-isopropyl-2-oxo-5-[5-(trifluoromethyl)-2-pyridyl]-3-pyridyl]methyl]pyrrolidine-2-carboxamide], the IC50 came out at 79 nM.
Take `CC(C)n1cc(-c2ccc(C(F)(F)F)cn2)cc(CNC(=O)[C@@H]2CCCN2S(=O)(=O)c2cc3cc(F)ccc3o2)c1=O` [Example 43, (2S)-1-(5-fluorobenzofuran-2-yl)sulfonyl-N-[[1-isopropyl-2-oxo-5-[5-(trifluoromethyl)-2-pyridyl]-3-pyridyl]methyl]pyrrolidine-2-carboxamide]: the IC50 was found to be 23 nM.
On to `CC(C)n1cc(-c2ccc(C(F)(F)F)cc2)cc(CNC(=O)[C@@H]2CCCN2S(=O)(=O)c2cc3c(F)cccc3o2)c1=O` [Example 44, (2S)-1-(4-fluorobenzofuran-2-yl)sulfonyl-N-[[1-isopropyl-2-oxo-5-[4-(trifluoromethyl)phenyl]-3-pyridyl]methyl]pyrrolidine-2-carboxamide], for which the IC50 was found to be 440 nM.
